According to patent US20160120863A1, “SLC2A TRANSPORTER INHIBITORS” (IOMET PHARMA LTD., priority 2013, published 2016):

These compounds were tested against T1, human GLUT1 (Homo sapiens, UniProt P11166) (assay: [3H]-deoxy-D-glucose uptake assay, GLUT1). Settings: [3H]-deoxy-D-glucose uptake in HEK293 cells stably expressing human GLUT1.
T1 construct: expressed in transfected cells
T1 sequence (P11166 1-492): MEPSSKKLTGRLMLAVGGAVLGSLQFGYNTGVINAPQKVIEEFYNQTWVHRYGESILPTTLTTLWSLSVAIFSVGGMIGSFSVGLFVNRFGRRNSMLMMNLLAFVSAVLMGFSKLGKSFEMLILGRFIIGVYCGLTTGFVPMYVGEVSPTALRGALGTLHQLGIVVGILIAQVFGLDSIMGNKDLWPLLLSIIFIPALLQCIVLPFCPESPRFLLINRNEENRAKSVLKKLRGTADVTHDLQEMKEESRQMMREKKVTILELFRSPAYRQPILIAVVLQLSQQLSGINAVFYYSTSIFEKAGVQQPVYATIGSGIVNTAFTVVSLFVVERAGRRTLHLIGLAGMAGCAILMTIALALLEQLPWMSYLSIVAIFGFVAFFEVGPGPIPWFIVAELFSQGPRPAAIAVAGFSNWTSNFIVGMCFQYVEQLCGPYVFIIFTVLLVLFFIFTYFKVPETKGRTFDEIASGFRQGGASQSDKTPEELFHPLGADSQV
Assay type: cell-based
Method: HEK293 cells were engineered to stably express either human GLUT1, GLUT2, GLUt3 or GLUT4 by transfection with the pReceiver-Lv105 plasmid, containing either hGLUT1, hGLUT2, hGLUT3, or hGLUT4 gene constructs with lipofectamine 2000, hGLUT1- hGLUT2- hGLUT3- or hGLUT4-overexpressing polyclonal populations were isolated under purinomycin selective pressure (1 μg/ml) and maintained in Dulbecco's modified Eagle's medium supplemented with 1 μg/ml purinomycin+10% foetal bovine serum (FBS).
60,000 cells per well were seeded overnight into poly-D-lysine coasted 96-well plates. […] 90 μl of test compounds were added in glucose-free uptake buffer and cells were incubated at 37° C. for 30 min.
Cells were then washed twice with ice-cold PBS and 100 μl of Microscint-20 was added per well. Glucose uptake was quantified with a scintillation counter. The half maximal inhibitory concentration (IC50) (a measure of the effectiveness of the test compound in inhibiting glucose uptake) was determined.

SMILES | GLUT1 pIC50
O=C(c1cccc(F)c1)N1CCCN(Cc2c(-c3ccc(Cl)cc3)nc3ccc(-c4ccccc4)cn23)CC1 [Compound 169] | ++ (pIC50 5.00-5.99)
Clc1ccc(-c2nc3ccc(-c4ncon4)cn3c2CN2CCOCC2)cc1 [Compound 172] | ++ (pIC50 5.00-5.99)
c1ccc(-c2ccc3nc(C4CCCCC4)c(CN4CCOCC4)n3c2)cc1 [Compound 173] | ++ (pIC50 5.00-5.99)
NC(=O)CN1CCN(Cc2c(-c3ccc(Cl)cc3)nc3ccc(-c4ccccc4)cn23)CC1 [Compound 174] | ++ (pIC50 5.00-5.99)
Clc1ccc(-c2nc3ccc(-c4ccccc4)cn3c2CN2CCn3ncnc3C2)cc1 [Compound 175] | ++ (pIC50 5.00-5.99)
Cc1cc2nc(-c3ccc(Cl)cc3)c(CN3CCOCC3)n2cc1-c1ccccc1 [Compound 176] | ++ (pIC50 5.00-5.99)
Clc1ccc(-c2nc3ccc(C4=CCCC4)cn3c2CN2CCOCC2)cc1 [Compound 177] | + (pIC50 4.00-4.99)
O=C(c1cccc(F)c1)N1CCN(Cc2c(-c3ccc(Cl)cc3)nc3ccc(C4CC4)cn23)CC1 [Compound 178] | +++ (pIC50 ≧ 6.00)
N#Cc1ccc2nc(-c3ccc(Cl)cc3)c(CN3CCOCC3)n2c1 [Compound 179] | +− (pIC50 < 4.00)
Clc1ccc(-c2nc3ccc(-c4nnn[nH]4)cn3c2CN2CCOCC2)cc1 [Compound 180] | +− (pIC50 < 4.00)
O=C(c1cnccn1)N1CCN(Cc2c(-c3ccc(Cl)cc3)nc3ccc(-c4ccccc4)cn23)CC1 [Compound 181] | +++ (pIC50 ≧ 6.00)
O=C(O)C1CCN(Cc2c(-c3ccc(Cl)cc3)nc3ccc(-c4ccccc4)cn23)CC1 [Compound 182] | +− (pIC50 < 4.00)
O=C(c1ccc(Cl)cc1)N1CCN(Cc2c(-c3ccc(Cl)cc3)nc3ccc(-c4ccccc4)cn23)CC1 [Compound 183] | +++ (pIC50 ≧ 6.00)
O=C(c1cncs1)N1CCN(Cc2c(-c3ccc(Cl)cc3)nc3ccc(-c4ccccc4)cn23)CC1 [Compound 184] | +++ (pIC50 ≧ 6.00)
O=C(c1cccc(Cl)c1)N1CCN(Cc2c(-c3ccc(Cl)cc3)nc3ccc(-c4ccccc4)cn23)CC1 [Compound 185] | ++ (pIC50 5.00-5.99)
CC(=O)N1CCN(Cc2c(-c3ccc(Cl)cc3)nc3cnc(-c4ccccc4)cn23)CC1 [Compound 186] | +++ (pIC50 ≧ 6.00)
Clc1ccc(-c2nc3ccc(-c4ccccc4)cn3c2CNC2CCOCC2)cc1 [Compound 188] | ++ (pIC50 5.00-5.99)
COc1cccc(-c2nc3ccc(-c4ccccc4F)cn3c2CN2CCN(C(=O)C3CCC3)CC2)c1 [Compound 189] | +++ (pIC50 ≧ 6.00)
COc1cccc(-c2nc3ccc(-c4ccccc4Cl)cn3c2CN2CCN(C(=O)C3CCC3)CC2)c1 [Compound 190] | +++ (pIC50 ≧ 6.00)
COc1cccc(-c2nc3ccc(-c4ccccc4C#N)cn3c2CN2CCN(C(=O)C3CCC3)CC2)c1 [Compound 191] | +++ (pIC50 ≧ 6.00)

SMILES | GLUT1 pIC50
COc1cccc(-c2nc3ccc(-c4ccccc4C(N)=O)cn3c2CN2CCN(C(=O)C3CCC3)CC2)c1 [Compound 192] | ++ (pIC50 5.00-5.99)
N#Cc1cccc(C(=O)N2CCN(Cc3c(-c4ccc(Cl)cc4)nc4ccc(-c5ccccc5)cn34)CC2)c1 [Compound 193] | +++ (pIC50 ≧ 6.00)
CC(=O)N1CCN(Cc2c(-c3ccc(Cl)cc3)nc3ccc(C4CC4)cn23)CC1 [Compound 194] | ++ (pIC50 5.00-5.99)
CCC(=O)N1CCN(Cc2c(-c3ccc(Cl)cc3)nc3ccc(C4CC4)cn23)CC1 [Compound 195] | ++ (pIC50 5.00-5.99)
O=C(c1ccncc1)N1CCN(Cc2c(-c3ccc(Cl)cc3)nc3ccc(C4CC4)cn23)CC1 [Compound 196] | +++ (pIC50 ≧ 6.00)
NC1CCN(Cc2c(-c3ccc(Cl)cc3)nc3ccc(-c4ccccc4)cn23)CC1 [Compound 197] | + (pIC50 4.00-4.99)
CN(C)C(=O)CNCc1c(-c2ccc(Cl)cc2)nc2ccc(-c3ccccc3)cn12 [Compound 198] | + (pIC50 4.00-4.99)
FC(F)(F)c1nnc2n1CCN(Cc1c(-c3ccc(Cl)cc3)nc3ccc(-c4ccccc4)cn13)C2 [Compound 199] | ++ (pIC50 5.00-5.99)
O=C(C1CCOCC1)N1CCN(Cc2c(-c3ccc(Cl)cc3)nc3ccc(-c4ccccc4)cn23)CC1 [Compound 200] | +++ (pIC50 ≧ 6.00)
O=C(C1CCC1)N1CCN(Cc2c(-c3ccc(Cl)cc3)nc3ccc(-c4ccccc4Cl)cn23)CC1 [Compound 201] | +++ (pIC50 ≧ 6.00)
O=C(C1CCC1)N1CCN(Cc2c(-c3ccc(Cl)cc3)nc3ccc(-c4ccccc4F)cn23)CC1 [Compound 202] | +++ (pIC50 ≧ 6.00)
Clc1ccc(-c2nc3ccc(Cc4ccccc4)cn3c2CN2CCOCC2)cc1 [Compound 203] | ++ (pIC50 5.00-5.99)
CC(=O)Nc1ccc2nc(-c3ccc(Cl)cc3)c(CN3CCOCC3)n2c1 [Compound 204] | +− (pIC50 < 4.00)
COc1cccc(-c2nc3ccc(Br)cn3c2CN2CCN(C(=O)C3CCC3)CC2)c1 [Compound 205] | ++ (pIC50 5.00-5.99)
Clc1ccc(-c2nc3ccc(-c4ccccc4)cn3c2CN2CCOCC2)cc1Cl [Compound 206] | ++ (pIC50 5.00-5.99)
COc1cccc(-c2nc3ccc(C4CC4)cn3c2CN2CCN(C(=O)C3CCC3)CC2)c1 [Compound 207] | +++ (pIC50 ≧ 6.00)
COc1cccc(-c2nc3ccccn3c2CN2CCN(C(=O)C3CCC3)CC2)c1 [Compound 208] | +− (pIC50 < 4.00)
Cc1cn2c(CN3CCOCC3)c(-c3ccc(Cl)cc3)nc2cn1 [Compound 209] | +− (pIC50 < 4.00)
CC(=O)NC1CCN(Cc2c(-c3ccc(Cl)cc3)nc3ccc(-c4ccccc4)cn23)CC1 [Compound 210] | ++ (pIC50 5.00-5.99)
CCOC(=O)CN1CCN(Cc2c(-c3ccc(Cl)cc3)nc3ccc(-c4ccccc4)cn23)CC1 [Compound 211] | +− (pIC50 < 4.00)

SMILES | GLUT1 pIC50
O=C(c1ccnnc1)N1CCN(Cc2c(-c3ccc(Cl)cc3)nc3ccc(-c4ccccc4)cn23)CC1 [Compound 212] | +++ (pIC50 ≧ 6.00)
N#Cc1ccccc1-c1ccc2nc(-c3ccc(Cl)cc3)c(CN3CCN(C(=O)C4CCC4)CC3)n2c1 [Compound 213] | +++ (pIC50 ≧ 6.00)
CS(=O)(=O)Nc1ccc2nc(-c3ccc(Cl)cc3)c(CN3CCOCC3)n2c1 [Compound 215] | ++ (pIC50 5.00-5.99)
C=C(C)c1cn2c(CN3CCOCC3)c(-c3ccc(Cl)cc3)nc2cn1 [Compound 216] | +++ (pIC50 ≧ 6.00)
COCC(=O)N1CCN(Cc2c(-c3ccc(Cl)cc3)nc3ccc(-c4ccccc4C#N)cn23)CC1 [Compound 218] | +++ (pIC50 ≧ 6.00)
CCC(=O)N1CCN(Cc2c(-c3ccc(Cl)cc3)nc3ccc(-c4ccccc4C#N)cn23)CC1 [Compound 219] | +++ (pIC50 ≧ 6.00)
N#Cc1ccccc1-c1ccc2nc(-c3ccc(Cl)cc3)c(CN3CCN(C(=O)c4ccncc4)CC3)n2c1 [Compound 220] | +++ (pIC50 ≧ 6.00)
N#Cc1ccccc1-c1ccc2nc(-c3ccc(Cl)cc3)c(CN3CCN(C(=O)c4cnccn4)CC3)n2c1 [Compound 221] | +++ (pIC50 ≧ 6.00)
O=C(O)CN1CCN(Cc2c(-c3ccc(Cl)cc3)nc3ccc(-c4ccccc4)cn23)CC1 [Compound 223] | +− (pIC50 < 4.00)
COCC(=O)N1CCN(Cc2c(-c3ccc(Cl)cc3)nc3ccc(-c4c(F)cccc4F)cn23)CC1 [Compound 225] | +++ (pIC50 ≧ 6.00)
CC(=O)N1CCN(Cc2c(-c3ccc(Cl)cc3)nc3ccc(-c4c(F)cccc4F)cn23)CC1 [Compound 226] | +++ (pIC50 ≧ 6.00)
CN(CC(=O)N(C)C)Cc1c(-c2ccc(Cl)cc2)nc2ccc(-c3ccccc3)cn12 [Compound 228] | +− (pIC50 < 4.00)
O=C(c1cocn1)N1CCN(Cc2c(-c3ccc(Cl)cc3)nc3ccc(-c4ccccc4)cn23)CC1 [Compound 229] | +++ (pIC50 ≧ 6.00)
O=C(c1ccc(=O)[nH]c1)N1CCN(Cc2c(-c3ccc(Cl)cc3)nc3ccc(-c4ccccc4)cn23)CC1 [Compound 230] | +++ (pIC50 ≧ 6.00)
CC(=O)N1CCCN(Cc2c(-c3ccc(Cl)cc3)nc3ccc(-c4ccccc4)cn23)CC1 [Compound 231] | +++ (pIC50 ≧ 6.00)
O=C(c1cnco1)N1CCN(Cc2c(-c3ccc(Cl)cc3)nc3ccc(-c4ccccc4)cn23)CC1 [Compound 233] | +++ (pIC50 ≧ 6.00)
O=C(c1ccncc1)N1CCN(Cc2c(-c3ccc(Cl)cc3)nc3ccc(-c4c(F)cccc4F)cn23)CC1 [Compound 235] | +++ (pIC50 ≧ 6.00)
Clc1ccc(-c2nc3ccc(C4CCOCC4)cn3c2CN2CCOCC2)cc1 [Compound 237] | ++ (pIC50 5.00-5.99)
